Measured values as given in patent US12590118B2, “Salt and crystal form of steroid derivative regulator” (Shanghai Hansoh Biomedical Co., Ltd., priority 2019, dated 2026).

Assay: Crystal form stability experiment (XRPD)
Format: physicochemical
Experimental: X-ray powder diffraction assay was carried out, and the obtained data was compared with the initial data.

## C[C@@H]1C[C@H](C(=O)Cn2ccc(C#N)n2)[C@@]2(C)CC[C@H]3[C@@H](CC[C@@H]4C[C@](C)(O)CC[C@@H]43)[C@H]12 [Crystal form I, 1-(2-((3R,5R,8R,9R,10S,13S,14S,15R,17S)-3-Hydroxy-3,13,15-trimethylhexadecahydro-1H-cyclopenta[a]phenanthren-17-yl)-2-oxoethyl)-1H-pyrazole-3-carbonitrile]
40° C., 5 days
  X-ray powder diffraction peak No. 6: 17.3
  X-ray powder diffraction peak No. 7: 20.1
  X-ray powder diffraction peak No. 8: 20.5
  X-ray powder diffraction peak No. 9: 22.1
  X-ray powder diffraction peak No. 10: 23.8
  X-ray powder diffraction peak No. 11: 38.3
40° C., 10 days
  X-ray powder diffraction peak No. 1: 7.3
  X-ray powder diffraction peak No. 2: 11.0
  X-ray powder diffraction peak No. 3: 11.8
  X-ray powder diffraction peak No. 4: 12.5
  X-ray powder diffraction peak No. 5: 16.6
  X-ray powder diffraction peak No. 6: 17.3
  X-ray powder diffraction peak No. 7: 20.2
  X-ray powder diffraction peak No. 8: 20.5
  X-ray powder diffraction peak No. 9: 21.9
  X-ray powder diffraction peak No. 10: 23.8
  X-ray powder diffraction peak No. 11: 38.2
40° C., 30 days
  X-ray powder diffraction peak No. 1: 7.2
  X-ray powder diffraction peak No. 2: 11.0
  X-ray powder diffraction peak No. 3: 11.8
  X-ray powder diffraction peak No. 4: 12.5
  X-ray powder diffraction peak No. 5: 16.6
  X-ray powder diffraction peak No. 6: 17.3
  X-ray powder diffraction peak No. 7: 20.1
  X-ray powder diffraction peak No. 8: 20.5
  X-ray powder diffraction peak No. 9: 22.0
  X-ray powder diffraction peak No. 10: 23.7
  X-ray powder diffraction peak No. 11: 38.2
60° C., 5 days
  X-ray powder diffraction peak No. 1: 7.1
  X-ray powder diffraction peak No. 2: 10.9
  X-ray powder diffraction peak No. 3: 11.7
  X-ray powder diffraction peak No. 4: 12.4
  X-ray powder diffraction peak No. 5: 16.5
  X-ray powder diffraction peak No. 6: 17.2
  X-ray powder diffraction peak No. 7: 20.0
  X-ray powder diffraction peak No. 8: 20.7
  X-ray powder diffraction peak No. 9: 22.0
  X-ray powder diffraction peak No. 10: 24.0
  X-ray powder diffraction peak No. 11: 38.2
60° C., 10 days
  X-ray powder diffraction peak No. 1: 7.2
  X-ray powder diffraction peak No. 2: 10.9
  X-ray powder diffraction peak No. 3: 11.7
  X-ray powder diffraction peak No. 4: 12.4
  X-ray powder diffraction peak No. 5: 16.5
  X-ray powder diffraction peak No. 6: 17.2
  X-ray powder diffraction peak No. 7: 20.1
  X-ray powder diffraction peak No. 8: 20.7
  X-ray powder diffraction peak No. 9: 22.0
  X-ray powder diffraction peak No. 10: 24.0
  X-ray powder diffraction peak No. 11: 38.2
60° C., 30 days
  X-ray powder diffraction peak No. 1: 7.2
  X-ray powder diffraction peak No. 2: 11.0
  X-ray powder diffraction peak No. 3: 11.8
  X-ray powder diffraction peak No. 4: 12.5
  X-ray powder diffraction peak No. 5: 16.6
  X-ray powder diffraction peak No. 6: 17.3
  X-ray powder diffraction peak No. 7: 20.1
  X-ray powder diffraction peak No. 8: 20.4
  X-ray powder diffraction peak No. 9: 21.8
  X-ray powder diffraction peak No. 10: 23.8
  X-ray powder diffraction peak No. 11: 38.2
Light, 5 days
  X-ray powder diffraction peak No. 1: 7.3
  X-ray powder diffraction peak No. 2: 11.0
  X-ray powder diffraction peak No. 3: 11.9
  X-ray powder diffraction peak No. 4: 12.5
  X-ray powder diffraction peak No. 5: 16.6
  X-ray powder diffraction peak No. 6: 17.3
  X-ray powder diffraction peak No. 7: 20.1
  X-ray powder diffraction peak No. 8: 20.6
  X-ray powder diffraction peak No. 9: 22.1
  X-ray powder diffraction peak No. 10: 23.9
  X-ray powder diffraction peak No. 11: 38.3
Light, 10 days
  X-ray powder diffraction peak No. 1: 7.3
  X-ray powder diffraction peak No. 2: 11.1
  X-ray powder diffraction peak No. 3: 11.9
  X-ray powder diffraction peak No. 4: 12.5
  X-ray powder diffraction peak No. 5: 16.7
  X-ray powder diffraction peak No. 6: 17.3
  X-ray powder diffraction peak No. 7: 20.2
  X-ray powder diffraction peak No. 8: 20.5
  X-ray powder diffraction peak No. 9: 21.9
  X-ray powder diffraction peak No. 10: 23.9
  X-ray powder diffraction peak No. 11: 38.3
light, 40° C., 60° C., 25° C./RH75%, 25° C./RH90%, 5, 10 and 30 days
  crystal form stability by XRPD (in words): No crystal form conversion had occurred
